Reference: US6875792B2, “Dosage form of L-Methionine S-Sulfoximine” (MSO Pharma LLC, priority 2002, dated 2005)
Like-named read-outs stand apart in the source and are kept apart here.

Columns and labels:
[1] = low doses
Description: As stated above, one unfortunate and well known side effect of MSO is that it is a convulsant.

glutamine synthetase [2] = biological target: T1, glutamine synthetase (Rattus norvegicus, UniProt P09606); conditions: low dose intravenous, 24 hours prior to sacrifice
Description: (§1) The Hawkins data is represented with closed circles whereas the comparison tested rats are represented with “+” and open circle symbols. The monkey results are shown with triangles. N represents the number of animals studied.
(§2) The monkeys who received LSMSO at doses of 5 and 10 mg/kg were anesthetized for a four hour period prior to sacrifice.

glutamine synthetase [3] = biological target: T1, glutamine synthetase; conditions: cited from earlier work
[4] = rats vs dogs; cited from earlier work
glutamine synthetase [5] = biological target: T1, glutamine synthetase; conditions: MSO pretreatment, cited from earlier work
[6] = mice; cited from earlier work
[7] = rats, cited from earlier work; for paroxysmal symptoms: 100 mg/kg and 50 mg/kg, 20 hours; for brain glutamine level versus paroxysmal dose: 100 and 50 mg/kg vs 200 mg/kg, 20 hours after administration
[8] = biological target: γ-glutamylcysteine synthetase (Rattus norvegicus, UniProt P19468); conditions: cited from earlier work
[9] = cited from earlier work
glutamine synthetase [10] = conditions: cited from earlier work
glutamine synthetase [11] = biological target: glutamine synthetase (Macaca mulatta, UniProt F7CAM5)
Description: as §1, §2

[12] = cited from earlier work; remark: listed apart in the source
[13] = biological target: cortical glutamine synthetase (Rattus norvegicus, UniProt P09606); conditions: model of acute hyperammonemia; cited from earlier work
[14] = portacaval anastomosis rats infused with ammonium acetate, 150 mg/kg pretreatment; cited from earlier work
[15] = cited from earlier work; remark: listed apart in the source
[16] = biological target: T2, gamma glutamyl cysteine synthetase (Rattus norvegicus, UniProt P19468); conditions: cited from earlier work
T2 construct: host or cells: rat brain in vivo
T2 sequence (P19468 1-637): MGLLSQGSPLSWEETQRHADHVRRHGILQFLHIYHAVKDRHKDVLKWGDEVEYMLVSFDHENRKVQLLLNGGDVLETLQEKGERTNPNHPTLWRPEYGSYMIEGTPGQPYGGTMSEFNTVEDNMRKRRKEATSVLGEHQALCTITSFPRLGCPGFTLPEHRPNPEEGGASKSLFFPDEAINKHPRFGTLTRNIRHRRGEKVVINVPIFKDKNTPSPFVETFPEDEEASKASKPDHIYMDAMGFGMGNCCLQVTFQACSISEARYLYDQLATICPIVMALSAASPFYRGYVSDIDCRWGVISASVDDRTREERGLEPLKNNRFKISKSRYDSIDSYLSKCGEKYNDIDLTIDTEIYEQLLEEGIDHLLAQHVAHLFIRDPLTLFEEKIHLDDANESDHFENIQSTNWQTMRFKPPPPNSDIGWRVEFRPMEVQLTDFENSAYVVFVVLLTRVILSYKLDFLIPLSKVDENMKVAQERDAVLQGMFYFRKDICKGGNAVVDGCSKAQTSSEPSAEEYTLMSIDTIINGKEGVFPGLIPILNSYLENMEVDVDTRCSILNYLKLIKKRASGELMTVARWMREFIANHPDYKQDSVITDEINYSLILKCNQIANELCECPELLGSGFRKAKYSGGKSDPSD

[17] = rats; did not affect MSO's inhibition of GS; cited from earlier work

T1 sequence (P09606 2-373 limits assumed): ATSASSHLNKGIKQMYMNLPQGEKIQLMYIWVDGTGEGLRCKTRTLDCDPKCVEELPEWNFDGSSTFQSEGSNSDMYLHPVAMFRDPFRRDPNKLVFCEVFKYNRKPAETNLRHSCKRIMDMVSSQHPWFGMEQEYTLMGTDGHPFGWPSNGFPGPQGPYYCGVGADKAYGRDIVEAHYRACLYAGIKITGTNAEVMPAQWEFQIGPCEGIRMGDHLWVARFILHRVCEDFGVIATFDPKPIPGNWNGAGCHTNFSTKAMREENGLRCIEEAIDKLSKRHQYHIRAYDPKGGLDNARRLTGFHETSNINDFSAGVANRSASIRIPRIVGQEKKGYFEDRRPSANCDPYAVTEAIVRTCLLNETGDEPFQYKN
Sequence of cortical glutamine synthetase (P09606 2-373 limits assumed): as above
Sequence of glutamine synthetase (Macaca mulatta, UniProt F7CAM5) (F7CAM5 1-373): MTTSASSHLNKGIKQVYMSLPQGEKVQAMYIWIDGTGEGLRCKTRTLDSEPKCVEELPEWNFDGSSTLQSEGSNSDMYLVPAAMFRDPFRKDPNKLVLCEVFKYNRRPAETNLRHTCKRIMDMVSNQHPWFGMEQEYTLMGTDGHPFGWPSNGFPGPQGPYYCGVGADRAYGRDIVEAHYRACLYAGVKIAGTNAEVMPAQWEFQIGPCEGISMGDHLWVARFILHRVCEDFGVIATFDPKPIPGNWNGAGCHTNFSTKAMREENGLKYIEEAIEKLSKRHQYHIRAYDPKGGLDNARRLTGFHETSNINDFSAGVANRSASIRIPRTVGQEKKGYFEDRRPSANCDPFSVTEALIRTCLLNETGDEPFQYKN
Sequence of γ-glutamylcysteine synthetase (P48508 whole entry partner, one chain of several): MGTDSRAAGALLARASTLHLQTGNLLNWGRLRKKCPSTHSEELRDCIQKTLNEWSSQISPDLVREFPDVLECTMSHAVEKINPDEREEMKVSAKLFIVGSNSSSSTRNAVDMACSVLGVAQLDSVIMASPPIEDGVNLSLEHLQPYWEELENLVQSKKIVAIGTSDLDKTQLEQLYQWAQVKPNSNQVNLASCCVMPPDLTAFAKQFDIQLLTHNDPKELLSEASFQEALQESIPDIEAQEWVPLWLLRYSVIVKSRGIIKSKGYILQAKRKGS

With CS(=N)(=O)CC[C@H](N)C(=O)O (stereo partly drawn) [LSMSO, L-methionine S-sulfoximine] the brain glutamine levels [1] was “lowered”, the seizures ([1]; LSMSO alone) was “no seizures” and the “state of the rats prior to sacrifice” value (glutamine synthetase [2]) was “awake and asymptomatic”. The “glutamine synthetase inhibition at low doses” value (glutamine synthetase [3]; rats, doses of less than 20 mg/kg) was “dramatic decrease”.

In the case of CS(=N)(=O)CC[C@H](N)C(=O)O (some centres unmarked) [MSO, methionine sulfoximine], the “resistance to MSO relative to dogs” value [4] is given as “approximately 100 times”, the cortical glutamine levels (glutamine synthetase [5]; group IV hyperammonemic rats) is given as “did not increase” and the “inhibition of glutamine synthetase activity” value (glutamine synthetase [5]; within the brain) is given as 64%. For the same molecule, the “in vivo ammonia toxicity” value [6] was “marked decrease”, the paroxysmal symptoms [7] was “did not differ in any way from the control animals” and the paroxysmal symptoms ([7]; listed as MSI) was “no paroxysmal symptoms”. For the same molecule, the “seizures at highest dose” value ([7]; 200 mg/kg) was “had seizures”, the “brain glutamine level versus paroxysmal dose” value [7] was “decreased to the same degree” and the “brain glutamine level versus paroxysmal dose” value ([7]; listed as MSI) was “reduced to the same degree”. For the same molecule, the “inhibition of γ-glutamylcysteine synthetase” value [8] was “effective inhibitor”, the “resistance to MSO relative to dogs” value ([9]; monkeys vs dogs) was “approximately 100 times” and the “inhibition at 72 hours” value (glutamine synthetase [10]; brain, 72 hours) was “remains to a considerable degree”. For the same molecule, the “persistence of inhibitory effect on glutamine synthetase” value (glutamine synthetase [10]; brain) was “a long as seven days”, the “time of maximal inhibition in the brain” value (glutamine synthetase [10]; single injection) was 24 h and the activity and appetite (glutamine synthetase [11]; one monkey, 2.5 mg/kg, 24 hour period prior to sacrifice) was “normal”. For the same molecule, the “sensitivity to the glutamine synthetase inhibiting effect” value (glutamine synthetase [11]; primates compared to rats, low doses, FIG. 1) was “more sensitive”, the tumor regression ([12]; patients with far-advanced, nonresectable cancer) was “no evidence of tumor regression” and the “hepatic or renal function or hematological status” value ([12]; patients, divided doses every 6 or 8 hours) was “no change”. The “inhibition of cortical glutamine synthetase” value [13] was 64%, the “prevented increase in cortical glutamine concentration” value [13] was 13 mmol/kg and the brain edema [14] was “ameliorated”. The intracranial pressure [14] was “did not rise”, the “most effective dosage for episodic running behavior to repeated sounds” value ([15]; cats and rats) was 7.5 mg/kg and the “effect at 10 mg/kg” value ([15]; cats, 10 mg/kg) was “early convulsive episodes”. For the same molecule, the “amounts that did not render cats susceptible” value ([15]; cats) was “less than 5 mg/kg”, the glutamine synthetase activity (glutamine synthetase [3]; rats, 5 to 200 mg/kg intraperitoneal) was “decreased in proportion to the dose” and the toxicity (glutamine synthetase [3]; rats, 5 to 200 mg/kg intraperitoneal, except at the highest dose of 200 mg/kg) was “no evidence of toxicity”. The “time to raised brain concentration of ammonia” value (glutamine synthetase [3]; single intraperitoneal injection) was at most 2 h.

In the case of CCCCS(=N)(=O)CCC(N)C(=O)O (centres unmarked) [buthionine sulfoximine], the hyperammonemic brain swelling [16] is given as “did not prevent”.

In the case of CSCC[C@H](N)C(=O)O [methionine], the “MSO-induced seizures on administration of methionine” value ([9]; monkeys and dogs) is listed as “suppressed” and the “protection from the convulsant effect of MSO” value [17] is listed as “protected”.
